The values that follow come from publication PMC5686178, “Antimicrobial peptides in frog poisons constitute a molecular toxin delivery system against predators” (Nature Communications, 2017).

Where a SMILES comes first, the peptide text is derived from it. Where no end group is shown, it is not given here. [ ]: non-standard residue; d: D form. sY = N[C@@H](Cc1ccc(OS(=O)(=O)O)cc1)C(=O)O; pGlu = O=C1CC[C@@H](C(=O)O)N1

The test system of series [1] is Caco-2 monolayers. Briefly: Transepithelial toxin passage across Caco-2 monolayers (ELISA). Particulars: 60 min. Background: ELISA stands for enzyme-linked immunosorbent assay.
Series [2] concerns Caco-2 monolayers. Description: Scanning electron microscopy of Caco-2 monolayers. The format is cell-based, Human. Particulars: fixation 5 min after administration. On the procedure:
Caco-2 cells were seeded on glass coverslips that were coated with rat tail collagen 1 (Sigma-Aldrich) the day before. The effect of four treatments (100 µM CPF, 100 µM caerulein, 100 µM CPF + caerulein, and a negative control) on differentiated Caco-2 monolayers was visualized. Chemical fixation was performed in 12-well culture plates 5 min after peptide administration (700 µl of solution in all treatments). For fixation, plate wells were filled with 1 ml 2,5% glutaraldehyde in 0.05 M sodium cacodylate buffer (pH 7.4; 37 °C) for 20 min, and subsequently washed twice with the same buffer. Postfixation was performed with 1% osmium tetroxide for 30 min, followed by three rinses with double-distilled water. Dehydration was carried out using a graded hexylene glycol series: 30; 50; 70; and 90%, taking 15 min for each step. Cells were rinsed three times for 10 min with 100% hexylene glycol, and then two more times for 10 min with 100% ethanol. Critical-point drying of coverslips was done using a Balzers union CPD020. Dried coverslips were mounted on carbon-coated stubs with double-sided conductive tape. Gold coating happened with a Jeol 1200JFC fine coater, after which coverslips were examined with a Jeol JSM-840 scanning electron microscope operating at 12 kV.

The conditions of series [3]: ref [8],[23]; cited from earlier work. An excerpt: As the main model for our study, we used a peptide pair composed of the systemic toxin caerulein, and the AMP caerulein precursor fragment-3 (CPF), both of which are key constituents of the skin secretion of the frog Xenopus laevis [18]–[20] (Fig. 1b). Caerulein is a potent ligand of cholecystokinin receptors expressed in the vertebrate intestine, pancreas, and brain[9], and at sufficiently high concentrations, may induce nausea, hypotension, intestinal cramps, vomiting, and diarrhea[9],[21],[22]. Even in the intestine, the target receptors are only accessible by means of epithelial absorption ...

The test system of the next series is other vertebrates. Particulars: intravenous, ref [9],[21],[22], cited from earlier work.
The next series deals with EpiOral 3D tissues. Briefly: Transepithelial toxin passage across EpiOral multilayered oral epithelial model (ELISA). The format is in vitro ADME. Particulars: 8-11 stacked cell layers, 60 min, n = 8, vs caerulein alone.
Where [4] appears, read: Caco-2 monolayer, apical to basolateral, 20 nmol caerulein + 20 nmol CPF (100 µM both) apical, ELISA, n = 9.

Consider “GIGASILSAGKSALKGLAKGLAEHFAN-NH2 [BLP, bombinin-like peptide 1]”, for which the “Enhancement of transepithelial passage of bombesin by co-administered BLP” value with Caco-2 monolayers [1] (Caco-2 monolayer, 100 µM both apical, ELISA, n = 9, vs toxin alone) is on record as ~ 4.5 times.

For the compound `CSCC[C@H](NC(=O)[C@H](Cc1c[nH]c2ccccc12)NC(=O)CNC(=O)[C@@H](NC(=O)[C@H](Cc1ccc(OS(=O)(=O)O)cc1)NC(=O)[C@H](CC(=O)O)NC(=O)[C@H](CCC(N)=O)NC(=O)[C@@H]1CCC(=O)N1)[C@@H](C)O)C(=O)N[C@@H](CC(=O)O)C(=O)N[C@@H](Cc1ccccc1)C(N)=O` [caerulein] ([pGlu]QD[sY]TGWMDF-NH2), the “Transepithelial passage of caerulein, % of applied dose at basolateral side” value in the series on Caco-2 monolayers [1] (Caco-2 monolayer on collagen-coated transwell 0.4 µm, apical to basolateral, caerulein alone 100 µM (20 nmol) apical, apical 200 µL / basolateral 1000 µL, ELISA, n = 9) is recorded as 0.3 – 1%. In the series on Caco-2 monolayers [1] (setting [4]), the “Transepithelial passage of caerulein, % of applied dose at basolateral side, CPF co-administered” value is on record as 2.3–6.8% and the “Transepithelial passage of caerulein, amount at basolateral side, CPF co-administered” value is 0.45 to 1.36 nmol. The “Transepithelial passage of caerulein, amount at basolateral side” value in the series on Caco-2 monolayers [1] (Caco-2 monolayer, apical to basolateral, caerulein alone 100 µM (20 nmol) apical, ELISA, n = 9) is 0.06 to 0.20 nmol. In the series on Caco-2 monolayers [2] (100 µM caerulein), the “Damage to Caco-2 monolayers by SEM, toxin alone” value is “does not damage Caco-2 monolayers”. Also, the “Half-life in the bloodstream” value in series [3] is “up to 45 min”. Besides, the “Intravenously injected dose that caused severe sickness, molar” value with other vertebrates (converted from 1 μg/kg BW) was 0.74 pmol/g BW. Besides, the “Intravenously injected dose that caused severe sickness” value in the series with other vertebrates is given as 1 μg/kg BW.

With “GFGSFLGKALKAALKIGANALGGSPQQ [CPF, caerulein precursor fragment-3]”, the “Increase in rate of transepithelial passage of caerulein by co-administered CPF” value with Caco-2 monolayers [1] (Caco-2 monolayer, 100 µM both, on average, vs caerulein alone) is “near sevenfold increase”. Further, the “Increase in caerulein passage by co-administered CPF, oral multilayer model” value in the series on EpiOral 3D tissues is reported as “nearly fivefold increase”. The “Damage to Caco-2 monolayers by SEM, CPF present” value with Caco-2 monolayers [2] (100 µM CPF + caerulein) is given as “abundant intercellular ruptures in the monolayer”.
